Data as given in PubChem BioAssay (NCI).
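Five compound concentrations were applied to cells in 96-well plates for 48 hours; endpoints were derived by simple linear interpolation of the resulting dose-response curve. TGI denotes the concentration required for complete inhibition of growth.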

Legend:
Experiment in all cases: NCI anticancer screen, dose series, 48 h
[1] = system: U251 CNS
[2] = system: EKVX NSCLC
[3] = system: HCC-2998 colon
[4] = system: COLO 205 colon
[5] = system: SNB-19 CNS
[6] = system: SW-620 colon
[7] = system: HOP-62 NSCLC
[8] = system: SNB-75 CNS
[9] = system: T-47D breast
[10] = system: MDA-N
[11] = system: KM12 colon
[12] = system: OVCAR-8 ovarian
[13] = system: CAKI-1 renal
[14] = system: HCT-116 colon
[15] = system: MCF7 breast
[16] = system: NCI/ADR-RES ovarian
[17] = system: PC-3 prostate
[18] = system: TK-10 renal
[19] = system: HL-60(TB) leukemia
[20] = system: M14 melanoma
[21] = system: SK-MEL-5 melanoma
[22] = system: OVCAR-3 ovarian
[23] = system: OVCAR-5 ovarian
[24] = system: MDA-MB-231 breast
[25] = system: SK-MEL-28 melanoma
[26] = system: DU-145 prostate
[27] = system: NCI-H23 lung
[28] = system: HOP-92 NSCLC
[29] = system: IGROV1 ovarian
[30] = system: A549 NSCLC
[31] = system: SK-MEL-2 melanoma
[32] = system: LOX IMVI melanoma
[33] = system: HT29 colon
[34] = system: ACHN renal
[35] = system: OVCAR-4 ovarian
[36] = system: NCI-H226 lung
[37] = system: HCT-15 colon
[38] = system: UO-31 renal
[39] = system: K-562 leukemia
[40] = system: HS 578T breast
[41] = system: CCRF-CEM leukemia
[42] = system: MALME-3M melanoma
[43] = system: SF-268 CNS
[44] = system: SF-539 CNS
[45] = system: UACC-257 melanoma
[46] = system: 786-0 renal
[47] = system: SF-295 CNS
[48] = system: SN12C renal
[49] = system: NCI-H460 lung
[50] = system: MDA-MB-435
[51] = system: NCI-H522 lung
[52] = system: SK-OV-3 ovarian
[53] = system: RXF 393 renal
[54] = system: A498 renal
[55] = system: UACC-62 melanoma
[56] = system: RPMI-8226 leukemia
[57] = system: SR leukemia
[58] = system: MOLT-4 leukemia

**Q.** What does the source list for `O=c1c(O)c(-c2ccc(O)cc2O)oc2cc(O)cc(O)c12`?
**A.** TGI [1]: > 100 µM; TGI [2]: > 100 µM; TGI [3]: > 100 µM; TGI [4]: > 100 µM; TGI [5]: > 100 µM; TGI [6]: > 100 µM; TGI [7]: > 100 µM; TGI [8]: > 100 µM; TGI [9]: > 100 µM; TGI [10]: > 100 µM; TGI [11]: > 100 µM; TGI [12]: > 100 µM; TGI [13]: > 100 µM; TGI [14]: > 100 µM; TGI [15]: > 100 µM; TGI [16]: > 100 µM; TGI [17]: > 100 µM; TGI [18]: > 100 µM; TGI [19]: > 100 µM; TGI [20]: > 100 µM; TGI [21]: > 100 µM; TGI [22]: > 100 µM; TGI [23]: > 100 µM; TGI [24]: > 100 µM; TGI [25]: > 100 µM; TGI [26]: > 100 µM; TGI [27]: > 100 µM; TGI [28]: > 100 µM; TGI [29]: > 100 µM; TGI [30]: > 100 µM; TGI [31]: > 100 µM; TGI [32]: > 100 µM; TGI [33]: > 100 µM; TGI [34]: > 100 µM; TGI [35]: > 100 µM; TGI [36]: > 100 µM; TGI [37]: > 100 µM; TGI [38]: > 100 µM; TGI [39]: > 100 µM; TGI [40]: > 100 µM; TGI [41]: > 100 µM; TGI [42]: > 100 µM; TGI [43]: > 100 µM; TGI [44]: > 100 µM; TGI [45]: > 100 µM; TGI [46]: > 100 µM; TGI [47]: > 100 µM; TGI [48]: > 100 µM; TGI [49]: > 100 µM; TGI [50]: > 100 µM

**Q.** How did the TGI [1] turn out when `CC(C)(C)[Si](C)(C)OCC1CCC(n2cnc3c(NC(=O)c4ccccc4)ncnc32)O1` (stereo not drawn) was run?
**A.** 32.9 µM

**Q.** What about the TGI [2] of the same compound?
**A.** 32.6 µM

**Q.** What about the TGI [3] of the same compound?
**A.** 36.2 µM

**Q.** What about the TGI [4] of the same compound?
**A.** 35.6 µM

**Q.** What about the TGI [5] of the same compound?
**A.** 33.9 µM

**Q.** What about the TGI [6] of the same compound?
**A.** 35 µM

**Q.** And the TGI [7]?
**A.** 38 µM

**Q.** What about the TGI [8] of the same compound?
**A.** 25.6 µM

**Q.** And the TGI [9]?
**A.** 60.6 µM

**Q.** What about the TGI [10] of the same compound?
**A.** 30.9 µM

**Q.** What about the TGI [11] of the same compound?
**A.** 31.3 µM

**Q.** What about the TGI [12] of the same compound?
**A.** 60.2 µM

**Q.** And the TGI [51]?
**A.** 33.2 µM

**Q.** What about the TGI [13] of the same compound?
**A.** 46.9 µM

**Q.** What about the TGI [14] of the same compound?
**A.** 33.5 µM

**Q.** What about the TGI [52] of the same compound?
**A.** 44.9 µM

**Q.** And the TGI [15]?
**A.** 45.1 µM

**Q.** And the TGI [53]?
**A.** 37.8 µM

**Q.** And the TGI [16]?
**A.** 33.4 µM

**Q.** And the TGI [54]?
**A.** 35.5 µM

**Q.** What about the TGI [17] of the same compound?
**A.** 52.6 µM

**Q.** And the TGI [55]?
**A.** 29.7 µM

**Q.** And the TGI [18]?
**A.** 38.6 µM

**Q.** What about the TGI [56] of the same compound?
**A.** 68.5 µM

**Q.** And the TGI [19]?
**A.** 38.2 µM

**Q.** What about the TGI [20] of the same compound?
**A.** 30.3 µM

**Q.** And the TGI [21]?
**A.** 23.7 µM

**Q.** What about the TGI [22] of the same compound?
**A.** 28 µM

**Q.** What about the TGI [23] of the same compound?
**A.** 32.3 µM

**Q.** And the TGI [24]?
**A.** 37.1 µM

**Q.** And the TGI [25]?
**A.** 27.9 µM

**Q.** And the TGI [26]?
**A.** 37 µM

**Q.** What about the TGI [27] of the same compound?
**A.** 37.4 µM

**Q.** And the TGI [28]?
**A.** 31.6 µM

**Q.** What about the TGI [29] of the same compound?
**A.** 32.7 µM

**Q.** And the TGI [30]?
**A.** 39.9 µM

**Q.** And the TGI [31]?
**A.** 45.6 µM

**Q.** And the TGI [32]?
**A.** 37.1 µM

**Q.** And the TGI [33]?
**A.** 33.6 µM

**Q.** What about the TGI [34] of the same compound?
**A.** 40.3 µM

**Q.** What about the TGI [35] of the same compound?
**A.** 39.5 µM

**Q.** And the TGI [36]?
**A.** 34.6 µM

**Q.** What about the TGI [37] of the same compound?
**A.** 39.2 µM

**Q.** And the TGI [38]?
**A.** 3.16 µM

**Q.** What about the TGI [39] of the same compound?
**A.** 39.5 µM

**Q.** And the TGI [57]?
**A.** 53.9 µM

**Q.** What about the TGI [40] of the same compound?
**A.** 33 µM

**Q.** What about the TGI [41] of the same compound?
**A.** 47.1 µM

**Q.** What about the TGI [42] of the same compound?
**A.** 34.3 µM

**Q.** What about the TGI [43] of the same compound?
**A.** 33.4 µM

**Q.** What about the TGI [44] of the same compound?
**A.** 32.9 µM

**Q.** And the TGI [45]?
**A.** 33.4 µM

**Q.** And the TGI [46]?
**A.** 31.3 µM

**Q.** And the TGI [58]?
**A.** 39.6 µM

**Q.** What about the TGI [47] of the same compound?
**A.** 35.8 µM

**Q.** And the TGI [48]?
**A.** 34 µM

**Q.** And the TGI [49]?
**A.** 32 µM

**Q.** And the TGI [50]?
**A.** 29.2 µM
